{"source": "paper PMC4627230", "about": "“Identification of TAX2 peptide as a new unpredicted anti-cancer agent” (Oncotarget, 2015)", "key": {"[1]": {"system": "immobilized TSP-1 (thrombospondin from human platelets)", "assay": "ELISA binding of biotin-labeled peptides to immobilized TSP-1", "settings": "biotin-labeled peptide 10 μg/mL, 3 h, room temperature, 0.5% BSA; absorbance 450 nm; n = 3 in triplicate", "description": "Microtiter plates (Nunc, ThermoFisher Scientific, Courtaboeuf, France) were coated overnight at 4°C with 0.5 μg TSP-1 in sodium carbonate-bicarbonate (BupH) buffer (Thermo Fisher Scientific). Plates were washed with PBS 0.1% BSA (Sigma-Aldrich) and non-specific sites were saturated during 30 min using 1% (w/v) BSA in BupH buffer. Biotin-labeled peptide (10 μg/mL, determined after dose-response assay from 0.01 to 100 μg/mL) was added in buffer containing 0.5% (w/v) BSA and incubated for 3 h at room temperature. Non-labeled peptide (0.001 to 5 mg/mL) was used as selective competitor. Plates were washed with PBS containing 0.1% (w/v) BSA and treated for 30 min with mouse anti-biotin antibody. Bound antibody was quantified using the mouse IgG Elite Vectastain ABC kit (Vector Laboratories) followed by incubation with 1-Step Turbo TMB substrate as a chromogen (ThermoFisher Scientific). The reaction was stopped with 0.5 M H2SO4 and absorbance was read at 450 nm."}, "CD47": {"system": "CD47", "settings": "ref [43]; cited from earlier work", "source_text": "In addition to the putative effects that may be due to CD47 association with its co-receptors, TAX2-bound TSP-1 also remains able to bind a wide variety of ligands through the other domains of the multi-modular protein. Among these domains, a central region of TSP-1 called 3TSR (three TSP-1 type 1 repeats) binds to the CD36 membrane receptor, also leading to inhibition of angiogenesis. Indeed, CD36 ligation by TSP-1 is known to induce an anti-angiogenic response by promoting CD36 association with β1 integrin and VEGFR2 dimer in a tripartite complex, resulting in decreased VEGFR2 phosphorylatio ... || Figure 7 TAX2 induces a shift in TSP-1 binding from CD47 to CD36 A. In physiological conditions, most of TSP-1-related effects on vascular function are mediated by TSP-1 carboxy terminal domain interaction with CD47 receptor. B. Under TAX2 treatment preventing TSP-1:CD47 interaction, binding of the 3TSR module of TSP-1 to CD36 receptor is promoted, thus leading to an overall anti-angiogenic response (NTD, N-terminal domain; Col, procollagen-homology domain; CBD, carboxy terminal cell binding domain). TEXT PRINTED IN THE PICTURE: (A) TSP-1: CD36: 1-10 nM; CD47: 10-100 pM DOUBTS OF THE COPYIST A ..."}}}
{"substance": "LSVDESKAQGIL [scrambled peptide, scrambled dodecapeptide used as a control (…), reference compound]", "values": [{"measurement": "binding to immobilized TSP-1", "setting": "[1]", "value": "does not"}]}
{"substance": "TSP-1: multimodular protein secreted as a disulfide-linked 450 kDa homotrimer", "values": [{"measurement": "binding affinity for CD47 compared to CD36", "setting": "CD47", "value": "higher compared to CD36 binding"}]}
